Patent US9149038B2, “4-amino-6-(heterocyclic)picolinates and 6-amino-2-(heterocyclic)pyrimidine-4-carboxylates and their use as herbicides” (Dow AgroSciences LLC, priority 2013, dated 2015)
Like-named read-outs stand apart in the source and are kept apart here.

How the values were obtained:
[1] = system: Key Broadleaf Weed and Crop Species; experiment: Post-Emergent Test II: postemergent herbicidal activity, visual rating after 14 d (Table 7); assay type: in vivo; details: post-emergence, 336 h; for pest or weed control at 35 g/ha: 35 g ai/ha; for pest or weed control at 70 g/ha: 70 g ai/ha; for pest or weed control at 140 g/ha: 140 g ai/ha
In short: (§1)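 Track-sprayed young seedlings (first/second true leaf) at 187 L/ha across a 2-fold rate series from the high rate down to 1/16×. Kept in greenhouse at 23-29° C day, subirrigated. Injury rated by eye after 14 d, 0 = no injury, 100 = complete kill.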

[2] = system: Key Grass and Sedge Weeds as well as Grass Crops; experiment: Post-Emergent Test II: postemergent herbicidal activity, visual rating after 14 d (Table 8); assay type: in vivo; details: post-emergence, 336 h; for pest or weed control at 35 g/ha: 35 g ai/ha; for pest or weed control at 70 g/ha: 70 g ai/ha; for pest or weed control at 140 g/ha: 140 g ai/ha
In short: as §1

[3] = ABUTH: velvetleaf (Abutilon theophrasti), read-out: Visual Growth Reduction (%) 14 Days After Application ABUTH
[4] = AMARE: redroot pigweed (Amaranthus retroflexus), read-out: Visual Growth Reduction (%) 14 Days After Application AMARE
[5] = BRSNN: oilseed rape, canola (Brassica napus), read-out: Visual Growth Reduction (%) 14 Days After Application BRSNN
[6] = CHEAL: lambsquarters (Chenopodium album), read-out: Visual Growth Reduction (%) 14 Days After Application CHEAL
[7] = EPHHL: wild poinsettia (Euphorbia heterophylla), read-out: Visual Growth Reduction (%) 14 Days After Application EPHHL
[8] = HELAN: sunflower (Helianthus annuus), read-out: Visual Growth Reduction (%) 14 Days After Application HELAN
[9] = barnyardgrass (Echinochloa crus-galli), read-out: Visual Growth Reduction (%) 14 Days After Application, ECHCG
[10] = giant foxtail (Setaria faberi), read-out: Visual Growth Reduction (%) 14 Days After Application, SETFA
[11] = maize, corn (Zea mays), read-out: Visual Growth Reduction (%) 14 Days After Application, ZEAMX
[12] = rice (Oryza sativa), read-out: Visual Growth Reduction (%) 14 Days After Application, ORYSA
[13] = wheat, spring (Triticum aestivum), read-out: Visual Growth Reduction (%) 14 Days After Application, TRZAS
[14] = yellow nutsedge (Cyperus esculentus), read-out: Visual Growth Reduction (%) 14 Days After Application, CYPES

Question: With `COC(=O)c1nc(-c2ccc(F)c3c2OCO3)nc(N)c1OC` [Compound 97] as the compound, how does the pest or weed control at 35 g/ha [1, 3] read?
Answer: The pest or weed control at 35 g/ha was 0 to 29%.

Question: And the pest or weed control at 70 g/ha [1, 3]?
Answer: The pest or weed control at 70 g/ha was 0 to 29%.

Question: And the pest or weed control at 140 g/ha [1, 3]?
Answer: Its pest or weed control at 140 g/ha is 0 to 29%.

Question: And the pest or weed control at 35 g/ha [1, 4]?
Answer: Its pest or weed control at 35 g/ha is 0 to 29%.

Question: And the pest or weed control at 70 g/ha [1, 4]?
Answer: The pest or weed control at 70 g/ha was 0 to 29%.

Question: What about the pest or weed control at 140 g/ha [1, 4] of the same compound?
Answer: Its pest or weed control at 140 g/ha is 0 to 29%.

Question: What about the pest or weed control at 35 g/ha [1, 5] of the same compound?
Answer: The pest or weed control at 35 g/ha was 0 to 29%.

Question: And the pest or weed control at 70 g/ha [1, 5]?
Answer: Its pest or weed control at 70 g/ha is 0 to 29%.

Question: And the pest or weed control at 140 g/ha [1, 5]?
Answer: Its pest or weed control at 140 g/ha is 0 to 29%.

Question: And the pest or weed control at 35 g/ha [1, 6]?
Answer: Its pest or weed control at 35 g/ha is 60 to 74%.

Question: What about the pest or weed control at 70 g/ha [1, 6] of the same compound?
Answer: Its pest or weed control at 70 g/ha is 85 to 94%.

Question: What about the pest or weed control at 140 g/ha [1, 6] of the same compound?
Answer: The pest or weed control at 140 g/ha was 60 to 74%.

Question: And the pest or weed control at 35 g/ha [1, 7]?
Answer: Its pest or weed control at 35 g/ha is 0 to 29%.

Question: What about the pest or weed control at 70 g/ha [1, 7] of the same compound?
Answer: Its pest or weed control at 70 g/ha is 0 to 29%.

Question: And the pest or weed control at 140 g/ha [1, 7]?
Answer: The pest or weed control at 140 g/ha was 0 to 29%.

Question: What about the pest or weed control at 35 g/ha [1, 8] of the same compound?
Answer: Its pest or weed control at 35 g/ha is 60 to 74%.

Question: What about the pest or weed control at 70 g/ha [1, 8] of the same compound?
Answer: The pest or weed control at 70 g/ha was 75 to 84%.

Question: And the pest or weed control at 140 g/ha [1, 8]?
Answer: The pest or weed control at 140 g/ha was 85 to 94%.

Question: And the pest or weed control at 35 g/ha [2, 9]?
Answer: Its pest or weed control at 35 g/ha is 0 to 29%.

Question: And the pest or weed control at 70 g/ha [2, 9]?
Answer: Its pest or weed control at 70 g/ha is 0 to 29%.

Question: What about the pest or weed control at 140 g/ha [2, 9] of the same compound?
Answer: The pest or weed control at 140 g/ha was 0 to 29%.

Question: And the pest or weed control at 35 g/ha [2, 10]?
Answer: The pest or weed control at 35 g/ha was 0 to 29%.

Question: And the pest or weed control at 70 g/ha [2, 10]?
Answer: The pest or weed control at 70 g/ha was 0 to 29%.

Question: What about the pest or weed control at 140 g/ha [2, 10] of the same compound?
Answer: Its pest or weed control at 140 g/ha is 0 to 29%.

Question: And the pest or weed control at 35 g/ha [2, 11]?
Answer: Its pest or weed control at 35 g/ha is 0 to 29%.

Question: What about the pest or weed control at 70 g/ha [2, 11] of the same compound?
Answer: Its pest or weed control at 70 g/ha is 0 to 29%.

Question: And the pest or weed control at 140 g/ha [2, 11]?
Answer: The pest or weed control at 140 g/ha was 0 to 29%.

Question: And the pest or weed control at 35 g/ha [2, 12]?
Answer: Its pest or weed control at 35 g/ha is 0 to 29%.

Question: What about the pest or weed control at 70 g/ha [2, 12] of the same compound?
Answer: Its pest or weed control at 70 g/ha is 0 to 29%.

Question: What about the pest or weed control at 140 g/ha [2, 12] of the same compound?
Answer: The pest or weed control at 140 g/ha was 0 to 29%.

Question: What about the pest or weed control at 35 g/ha [2, 13] of the same compound?
Answer: The pest or weed control at 35 g/ha was 0 to 29%.

Question: And the pest or weed control at 70 g/ha [2, 13]?
Answer: Its pest or weed control at 70 g/ha is 0 to 29%.

Question: What about the pest or weed control at 140 g/ha [2, 13] of the same compound?
Answer: The pest or weed control at 140 g/ha was 0 to 29%.

Question: And the pest or weed control at 35 g/ha [2, 14]?
Answer: Its pest or weed control at 35 g/ha is 0 to 29%.

Question: What about the pest or weed control at 70 g/ha [2, 14] of the same compound?
Answer: Its pest or weed control at 70 g/ha is 0 to 29%.

Question: What about the pest or weed control at 140 g/ha [2, 14] of the same compound?
Answer: The pest or weed control at 140 g/ha was 0 to 29%.
